According to ChEMBL document CHEMBL1127341, “Synthesis and biological evaluation of 5-[[3,5-bis(1,1-dimethylethyl)- 4-hydroxyphenyl]methylene]oxazoles, -thiazoles, and -imidazoles: novel dual 5-lipoxygenase and cyclooxygenase inhibitors with antiinflammatory activity” (J Med Chem, 1994):

Assays:
Format in all cases: functional
[1] = test system: Rattus norvegicus; assay: 40% inhibition of induced edema in the rat mycobacterium foot-pad edema test
[2] = test system: Rattus norvegicus; assay: Inhibition of rat carrageenan induced foot-pad edema at a dose of 10 mg/kg on peroral administration; conditions: route oral
[3] = test system: Rattus norvegicus; assay: Inhibition of rat carrageenan induced foot-pad edema at a dose of 30 mg/kg on peroral administration; conditions: route oral

Cc1ccc(Cl)c(Nc2ccccc2C(=O)[O-])c1Cl.O.[Na+] [MECLOFENAMATE SODIUM]
ID40 [1]: 0.4 mg/kg | inhibition in vivo at 10 mg/kg [2]: 34% | inhibition in vivo at 30 mg/kg [3]: 41%
